Series [1] concerns Canadian thistle (CIRAR, Cirsium arvense). As to the kind of experiment: Greenhouse postemergence herbicidal effect. In kind it is in vivo. As to the method: (§1) The plants were grown for 7-36 days (d) in a greenhouse with an approximate 14-hour (h) photo-period which was maintained at about 23° C. during the day and 22° C. during the night. Nutrients and water were added on a regular basis and supplemental lighting was provided with overhead metal halide 1000-Watt lamps as necessary. The plants were employed for testing when they reached the second or third true leaf stage.
(§2) The emulsifiable concentrates also included a safener, cloquintocet-mexyl, at 120 grams active ingredient per liter (g ai/L), unless otherwise noted below.
(§3) Control plants were sprayed in the same manner with the solvent blank. All pyridine carboxylate herbicide (component a) application rates are given as “g ae/ha” and all ALS inhibitor (component b) application rates are given as “g ai/ha.”
(§4) The treated plants and control plants were placed in a greenhouse as described above and watered by sub-irrigation to prevent wash-off of the test compounds. After 20-22 d, the condition of the test plants as compared with that of the control plants was determined visually and scored on a scale of 0 to 100 percent where 0 corresponds to no injury and 100 corresponds to complete kill.

For series [2], the system named is pigweed (AMARE, Amaranthus retroflexus). As to the kind of experiment: Greenhouse postemergence herbicidal effect. It is filed as in vivo. As to the method: as §1, §2, §3, §4
In series [3] the test system is wild buckwheat (POLCO, Polygonum convolvulus). The series is described as follows: Greenhouse postemergence herbicidal effect. It is filed as in vivo. The conditions noted are these: for % visual injury, Obs / Obs % visual injury: POLCO. As to the method: as §1, §2, §3, §4
The subject of series [4] is wild chamomile (MATCH, Matricaria chamomilla). As to the kind of experiment: Greenhouse postemergence herbicidal effect. In kind it is in vivo. As to the method: as §1, §2, §3, §4
Series [5] deals with wild mustard (SINAR, Sinapis arvensis). As to the kind of experiment: Greenhouse postemergence herbicidal effect. In kind it is in vivo. As for the experimental part: as §1, §2, §3, §4
The test system of series [6] is winter rape (BRSNW, Brassica napus). As to the kind of experiment: Greenhouse postemergence herbicidal effect. In kind it is in vivo. As to the method: as §1, §2, §3, §4
Series [7] has as its system common lambsquarters (CHEAL, Chenopodium album L.). As to the kind of experiment: Greenhouse postemergence herbicidal effect. It is filed as in vivo. As for the experimental part:
(§5) Seeds of the desired test plant species were planted in a 90:10% v/v (volume/volume) mixture of PRO-MIX® BX (Premier Tech Horticulture, Quakertown, PA, USA) and PROFILE® GREENS GRADE™ (Profile Products LLC, Buffalo Grove, IL, USA) planting mixture, which typically has a pH of 5.2 to 6.2 and an organic matter content of at least 50 percent, in plastic pots with a surface area of 103.2 square centimeters (cm^2). […] The plants were grown for 7-36 days (d) in a greenhouse with an approximate 14-hour (h) photo-period which was maintained at about 23° C. during the day and 22° C. during the night. Nutrients and water were added on a regular basis and supplemental lighting was provided with overhead metal halide 1000-Watt lamps as necessary. The plants were employed for testing when they reached the second or third true leaf stage.
(§6) Emulsifiable concentrates of each of each pyridine carboxylate herbicide (Compound A or Compound B) were prepared at 100 grams acid equivalent per liter (g ae/L). The emulsifiable concentrates also included a safener, cloquintocet-mexyl, at 120 grams active ingredient per liter (g ai/L), unless otherwise noted below. An aliquot of each emulsifiable concentrate was placed in a 25 mL glass vial and diluted with an aqueous mixture of 1.25% (v/v) ACTIROB® B esterified rapeseed oil (Bayer Crop Science, Research Triangle Park, NC, USA) or MSO® Concentrate with LECI-TECH® methylated soybean oil (Loveland Products, Loveland, CO, USA) to obtain concentrated stock solutions at the highest application rate for each herbicide, based upon a 12 milliliter (mL) application volume at a rate of 187 liters per hectare (L/ha). The concentrated stock solutions were further diluted with an aqueous mixture of 1.25% v/v ACTIROB® B or MSO® Concentrate with LECI-TECH® to obtain stock solutions at reduced application rates for each herbicide. Spray solutions of the herbicide combinations (Compound A or Compound B plus ALS herbicide) were prepared by adding weighed amounts or aliquots of the ALS herbicides to the stock solutions of Compound A or Compound B to form 12-mL spray solutions in two- or three-way combinations.
(§7) The spray solutions were applied to the plant material with an overhead Mandel track sprayer equipped with 8002E nozzles calibrated to deliver 187 L/ha over an application area of 0.503 square meters (m^2) at a spray height of 18 inches (43 centimeters (cm)) above the average plant canopy. Control plants were sprayed in the same manner with the solvent blank. All pyridine carboxylate herbicide (component a) application rates are given as “g ae/ha” and all ALS inhibitor (component b) application rates are given as “g ai/ha.”
as §4

The test system of series [8] is kochia (KCHSC, Kochia scoparia). The series is described as follows: Greenhouse postemergence herbicidal effect. It is filed as in vivo. As for the experimental part:
as §5, §6, §7, §4

A further series has as its system spring wheat (TRZAS). In kind it is in vivo, Triticum aestivum. As for the experimental part: as §1, §2, §3, §4
Another series has as its system spring barley (HORVS). In kind it is in vivo, Hordeum vulgare. As for the experimental part: as §1, §2, §3, §4
The test system of series [9] is Russian thistle (SASKR, Salsola kali). As to the kind of experiment: Greenhouse postemergence herbicidal effect. It is filed as in vivo. As to the method: as §1, §2, §3, §4

The text below walks through data of patent US12285012B2, “Compositions comprising pyridine carboxylate herbicides with acetolactate synthase (ALS) inhibitor herbicides” (Corteva Agriscience LLC, priority 2018, dated 2025).

In the case of `COc1cc(OC)nc(Oc2cccc(Oc3nc(OC)cc(OC)n3)c2C(=O)O)n1` [Bispyrabac], the “% visual injury Obs” value in series [1] (Bispyrabac 20 g/ha) amounted to 68%; in series [2] (Bispyrabac 20 g/ha) it was 100%; in [3] (Bispyrabac 20 g/ha), 96%; in series [4] (Bispyrabac 20 g/ha), 23%; in series [5] (Bispyrabac 20 g/ha), 96%; in series [6] (Bispyrabac 20 g/ha), 100%. For the same molecule, the “% visual injury Obs” value in series [7] (Bispyrabac 20 g/ha) is listed as 0%; in [8] (Bispyrabac 20 g/ha), 10%; in the series with spring wheat (TRZAS) (Bispyrabac 20 g/ha), 0%; in the series with spring barley (HORVS) (Bispyrabac 20 g/ha) it was 13%.
Take `COc1nn(C(=O)NS(=O)(=O)c2ccccc2OC(F)(F)F)c(=O)n1C` [Flucarbazone, flucarbazone]: the pest or weed control at 30 g/ha in series [1] (Cirsium arvense, post-emergence, CIRAR, Flurcarbazone 30 g/ha, read-out: % visual injury, Obs) is 28%; in series [8] (Bassia scoparia, post-emergence, KCHSC, Flurcarbazone 30 g/ha, read-out: % visual injury, Obs), 25%. Further, the “% visual injury, Obs” value in series [2] (AMARE, Flurcarbazone 30 g/ha) is 98%; in [3] (Flurcarbazone 30 g/ha), 88%; in series [4] (MATCH, Flurcarbazone 30 g/ha), 18%; in [5] (SINAR, Flurcarbazone 30 g/ha), 88%; in series [6] (BRSNW, Flurcarbazone 30 g/ha) it was 83%; in series [7] (CHEAL, Flurcarbazone 30 g/ha), 10%.
Consider `Cc1ccn2nc(S(=O)(=O)Nc3c(F)cccc3F)nc2n1` [Flumetsulam, flumetsulam], for which the “% visual injury Obs” value in series [1] (Flumetsulam 4.375 g/ha) was 5%; in [9] (Flumetsulam 4.375 g/ha), 0%; in [2] (Flumetsulam 4.375 g/ha), 98%; in series [3] (Flumetsulam 4.375 g/ha) it was 5%; in [4] (Flumetsulam 4.375 g/ha), 83%; in [5] (Flumetsulam 4.375 g/ha), 50%. For the same molecule, the results for the “% visual injury Obs” value in series [6] (Flumetsulam 4.375 g/ha), in series [7] (Flumetsulam 4.375 g/ha) and in series [8] (Flumetsulam 4.375 g/ha) were 40%, 45% and 5%, respectively.
Consider `Cc1cnc(C2=NC(C)(C(C)C)C(=O)N2)c(C(=O)O)c1` (centres unmarked) [Imazapic, imazapic], for which the “Obs % visual injury” value was 68% in [1] (CIRAR, Imazapic 35 g/ha); 35% in series [9] (SASKR, Imazapic 35 g/ha); 100% in series [2] (AMARE, Imazapic 35 g/ha); 63% in [3] (Imazapic 35 g/ha); 68% in series [4] (MATCH, Imazapic 35 g/ha); 91% in series [5] (SINAR, Imazapic 35 g/ha). Moreover, the “Obs % visual injury” value in [6] (BRSNW, Imazapic 35 g/ha) is recorded as 98%; in series [7] (CHEAL, Imazapic 35 g/ha) it was 78%; in [8] (KCHSC, Imazapic 35 g/ha), 80%.
As to `CCc1cnc(C2=NC(C)(C(C)C)C(=O)N2)c(C(=O)O)c1` (centres unmarked) [Imazethapyr, imazethapyr], the pest or weed control at 35 g/ha in series [1] (Cirsium arvense, post-emergence, 35 g/ha, read-out: % visual injury, Obs) amounted to 40%; in series [8] (Bassia scoparia, post-emergence, 35 g/ha, read-out: % visual injury, Obs), 53%. The figures for the “% visual injury, Obs” value in series [9] (35 g/ha), in [4] (35 g/ha) and in series [7] (35 g/ha) were 40%, 18% and 28%, respectively.
As for `COc1nc(C)nc(NC(=O)NS(=O)(=O)c2ccccc2C(=O)O)n1` [Metsulfuron, metsulfuron], the “% visual injury, Obs” value is given as 85% in [1] (CIRAR, Metsulfuron 3 g/ha); 100% in [2] (AMARE, Metsulfuron 3 g/ha); 85% in [3] (Metsulfuron 3 g/ha); 96% in series [4] (MATCH, Metsulfuron 3 g/ha); 88% in series [5] (SINAR, Metsulfuron 3 g/ha); 90% in series [6] (BRSNW, Metsulfuron 3 g/ha). Also, the “% visual injury, Obs” value is listed as 98% in series [7] (CHEAL, Metsulfuron 3 g/ha) and 75% in [8] (KCHSC, Metsulfuron 3 g/ha).
`COc1nc(C)nc(N(C)C(=O)NS(=O)(=O)c2ccccc2C(=O)O)n1` [Tribenuron, tribenuron]: the “% visual injury, Obs” value turned out to be 89% in series [1] (CIRAR, Tribenuron 15 g/ha); 100% in series [2] (AMARE, Tribenuron 15 g/ha); 78% in series [3] (Tribenuron 15 g/ha); 87% in [4] (MATCH, Tribenuron 15 g/ha); 95% in [5] (SINAR, Tribenuron 15 g/ha); 99% in series [6] (BRSNW, Tribenuron 15 g/ha). Further, the “% visual injury, Obs” value in series [7] (CHEAL, Tribenuron 15 g/ha) was 96%; in [8] (KCHSC, Tribenuron 15 g/ha), 50%.
In the case of iodosulfuron, the “% visual injury, Obs” value is 85% in series [1] (CIRAR, Iodosulfuron 33.75 g/ha); 98% in series [2] (AMARE, Iodosulfuron 33.75 g/ha); 85% in [3] (Iodosulfuron 33.75 g/ha); 85% in [4] (MATCH, Iodosulfuron 33.75 g/ha); 100% in series [5] (SINAR, Iodosulfuron 33.75 g/ha); 98% in series [6] (BRSNW, Iodosulfuron 33.75 g/ha). In addition, the “% visual injury, Obs” value in series [7] (CHEAL, Iodosulfuron 33.75 g/ha) was determined as 90%; in series [8] (KCHSC, Iodosulfuron 33.75 g/ha), 70%; in the series with spring wheat (TRZAS) (TRZAS, Iodosulfuron 33.75 g/ha) it was 0%; in the series on spring barley (HORVS) (HORVS, Iodosulfuron 33.75 g/ha), 0%.
Take mesosulfuron: the “% visual injury, Obs” value in [1] (CIRAR, Mesosulfuron 9 g/ha) worked out at 73%; in [2] (AMARE, Mesosulfuron 9 g/ha), 100%; in series [3] (Mesosulfuron 9 g/ha), 28%; in series [4] (MATCH, Mesosulfuron 9 g/ha) it was 45%; in series [5] (SINAR, Mesosulfuron 9 g/ha) it was 94%; in series [6] (BRSNW, Mesosulfuron 9 g/ha), 95%. Besides, the “% visual injury, Obs” value amounted to 48% in series [7] (CHEAL, Mesosulfuron 9 g/ha) and 13% in [8] (KCHSC, Mesosulfuron 9 g/ha). Also, the “% visual injury” value worked out at 78% in series [1] (Mesosulfuron 3 g/ha); 15% in series [9] (Mesosulfuron 3 g/ha); 78% in series [2] (Mesosulfuron 3 g/ha); 20% in series [3] (Mesosulfuron 3 g/ha); 15% in [4] (Mesosulfuron 3 g/ha); 98% in [5] (Mesosulfuron 3 g/ha). The “% visual injury” value in [6] (Mesosulfuron 3 g/ha) is 100%; in series [7] (Mesosulfuron 3 g/ha) it was 30%; in [8] (Mesosulfuron 3 g/ha), 0%. In addition, the “Obs % visual injury” value in series [3] (Mesosulfuron 3 g/ha) is on record as 3%; in series [4] (MATCH, Mesosulfuron 3 g/ha), 10%.
